Assay results as given in patent publication US10821115B2, “Compounds that inhibit Mcl-1 protein” (priority 2017, dated 2020).
Read-outs that look alike come from different tables or passages of the source.

What was measured:
[1] = tested on: human multiple myeloma cell line, OPM-2; assay: Cell viability assay (OPM-2 10 FBS), CellTiter-Glo; type: cell-based
In short: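 Steps: plate cells at 3000/well in 10% FBS growth medium, add serially diluted compound, incubate 16 h at 37 °C with 5% CO2, add detection reagent and read luminescence after 25 min. A 4-parameter logistic model gives IC50.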

[2] = biological target: recombinant human Mcl-1 (residues 171-327) / Bim interaction (Homo sapiens (Human), UniProt Q07820); assay: biochemical; type: binding; conditions: read-out: Mcl-1 HTRF IC50
recombinant human Mcl-1 (residues 171-327) / Bim interaction, sequence (Q07820 171-327): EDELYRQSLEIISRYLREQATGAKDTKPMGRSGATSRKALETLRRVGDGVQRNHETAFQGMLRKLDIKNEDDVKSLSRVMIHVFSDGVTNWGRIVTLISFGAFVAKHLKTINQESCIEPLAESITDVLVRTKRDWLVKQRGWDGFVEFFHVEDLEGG

[3] = Homo sapiens, OPM-2, 16 h, read-out: OPM-2 10% FBS IC50 IP, OPM-2 cells, 10% FBS, 16 h, CellTiter-Glo
[4] = TR-FRET, Mcl-1(171-327) / biotin-Bim (51-76)
[5] = read-out: OPM-2 10% FBS IC50 IP, OPM-2 cells, 10% FBS, 16 h, CellTiter-Glo

CC(C)C[C@]1(O)/C=C/C[C@H](C)[C@@H](C)S(=O)(=O)NC(=O)c2ccc3c(c2)N(C[C@@H]2CC[C@H]21)C[C@@]1(CCCc2cc(Cl)ccc21)CO3 [Example 100224, (1S,3′R,6′R,7′S,8′E,11′S,12′R)-6-chloro-7′-hydroxy-11′,12′-dimethyl-7′-(2-methylpropyl)-3,4-dihydro-2H,15′H-spiro[naphthalene-1,22′-[20]oxa[13]thia[1,14]diazatetracyclo [14.7.2.0~3,6~.0~19,24~]pentacosa[8,16,18,24]tetraen]-15′-one 13′,13′-dioxide]
IC50 [1, 3]: 385 nM
IC50 [2, 4]: 0.345 nM

COC[C@]1(OC)CCC[C@H](C)[C@@H](C)S(=O)(=O)NC(=O)c2ccc3c(c2)N(C[C@@H]2CC[C@H]21)C[C@@]1(CCCc2cc(Cl)ccc21)CO3 [Example 100225, (1S,3′R,6′R,7′S,11′S,12′R)-6-chloro-7′-methoxy-7′-(methoxymethyl)-11′,12′-dimethyl-3,4-dihydro-2H,15′H-spiro[naphthalene-1,22′-[20]oxa[13]thia[1,14]diazatetracyclo [14.7.2.0~3,6~.0~19,24~]pentacosa[16,18,24]trien]-15′-one 13′,13′-dioxide]
IC50 [1, 5]: 882 nM
IC50 [2, 4]: 0.639 nM

C[C@@H]1[C@@H](C)CCC[C@@](O)(c2nccn2C)[C@@H]2CC[C@H]2CN2C[C@@]3(CCCc4cc(Cl)ccc43)COc3ccc(cc32)C(=O)NS1(=O)=O [Example 100226, (1S,3′R,6′R,7′S,11′S,12′R)-6-chloro-7′-hydroxy-11′,12′-dimethyl-7′-(1-methyl-1H-imidazol-2-yl)-3,4-dihydro-2H,15′H-spiro[naphthalene-1,22′-[20]oxa[13]thia[1,14]diazatetracyclo [14.7.2.0~3,6~.0~19,24~]pentacosa[16,18,24]trien]-15′-one 13′,13′-dioxide]
IC50 [1, 3]: 849 nM
IC50 [2, 4]: 1.4 nM

C[C@@H]1[C@@H](C)CCC[C@]2(OC[C@@H](N(C)C)CO2)[C@@H]2CC[C@H]2CN2C[C@@]3(CCCc4cc(Cl)ccc43)COc3ccc(cc32)C(=O)NS1(=O)=O [Example 100227]
IC50 [1, 3]: 191 nM
IC50 [2, 4]: 0.423 nM

C[C@@H]1[C@@H](C)CCC[C@@]2(CCO2)[C@@H]2CC[C@H]2CN2C[C@@]3(CCCc4cc(Cl)ccc43)COc3ccc(cc32)C(=O)NS1(=O)=O [Example 100228, (1S,3′R,6′R,7′R,11′S,12′R)-6-chloro-11′,12′-dimethyl-3,4-dihydro-2H,15′H-dispiro[naphthalene-1,22′-[20]oxa[13]thia[1,14]diazatetracyclo [14.7.2.0~3,6~.0~19,24~]pentacosa[16,18,24]triene-7′,2″-oxetan]-15′-one 13′,13′-dioxide]
IC50 [1, 3]: 3300 nM
IC50 [2, 4]: 0.558 nM

CO[C@@]1(c2nccn2C)CCC[C@H](C)[C@@H](C)S(=O)(=O)NC(=O)c2ccc3c(c2)N(C[C@@H]2CC[C@H]21)C[C@@]1(CCCc2cc(Cl)ccc21)CO3 [Example 100230, (1S,3′R,6′R,7′S,11′S,12′R)-6-chloro-7′-methoxy-11′,12′-dimethyl-7′-(1-methyl-1H-imidazol-2-yl)-3,4-dihydro-2H,15′H-spiro[naphthalene-1,22′-[20]oxa[13]thia[1,14]diazatetracyclo [14.7.2.0~3,6~.0~19,24~]pentacosa[16,18,24]trien]-15′-one 13′,13′-dioxide]
IC50 [1, 3]: 544 nM
IC50 [2, 4]: 0.473 nM

CCC[C@]1(O)/C=C/C[C@H](C)[C@@H](C)S(=O)(=O)NC(=O)c2ccc3c(c2)N(C[C@@H]2CC[C@H]21)C[C@@]1(CCCc2cc(Cl)ccc21)CO3 [Example 100232, (1S,3′R,6′R,7′S,8′E,11′S,12′R)-6-chloro-7′-hydroxy-11′,12′-dimethyl-7′-propyl-3,4-dihydro-2H,15′H-spiro[naphthalene-1,22′-[20]oxa[13]thia[1,14]diazatetracyclo [14.7.2.0~3,6~.0~19,24~]pentacosa[8,16,18,24]tetraen]-15′-one 13′,13′-dioxide]
IC50 [1, 3]: 389 nM
IC50 [2]: 0.152 nM

C[C@@H]1[C@@H](C)C/C=C/[C@@]2(COCCO2)[C@@H]2CC[C@H]2CN2C[C@@]3(CCCc4cc(Cl)ccc43)COc3ccc(cc32)C(=O)NS1(=O)=O [Example 100233, (2S,3′R,6′R,8′E,11′S,12′R,22′S)-6″-chloro-11′,12′-dimethyl-3″,4″-dihydro-2″H,15′H-dispiro[1,4-dioxane-2,7′-[20]oxa[13]thia[1,14]diazatetracyclo [14.7.2.0~3,6~.0~19,24~]pentacosa[8,16,18,24]tetraene-22′,1″-naphthalen]-15′-one 13′,13′-dioxide]
IC50 [1, 5]: 257 nM
IC50 [2, 4]: 1.04 nM

CC[C@]1(OC)/C=C/C[C@H](C)[C@@H](C)S(=O)(=O)NC(=O)c2ccc3c(c2)N(C[C@@H]2CC[C@H]21)C[C@@]1(CCCc2cc(Cl)ccc21)CO3 [Example 100234, (1S,3′R,6′R,7′S,8′E,11′S,12′R)-6-chloro-7′-ethyl-7′-methoxy-11′,12′-dimethyl-3,4-dihydro-2H,15′H-spiro[naphthalene-1,22′-[20]oxa[13]thia[1,14]diazatetracyclo [14.7.2.0~3,6~.0~19,24~]pentacosa[8,16,18,24]tetraen]-15′-one 13′,13′-dioxide]
IC50 [1, 3]: 449 nM
IC50 [2, 4]: 0.237 nM

C[C@@H]1[C@@H](C)C/C=C/[C@@](O)(C#N)[C@@H]2CC[C@H]2CN2C[C@@]3(CCCc4cc(Cl)ccc43)COc3ccc(cc32)C(=O)NS1(=O)=O [Example 100235, (1S,3′R,6′R,7′S,8′E,11′S,12′R)-6-chloro-7′-hydroxy-11′,12′-dimethyl-15′-oxo-3,4-dihydro-2H-spiro[naphthalene-1,22′-[20]oxa[13]thia[1,14]diazatetracyclo [14.7.2.0~3,6~.0~19,24~]pentacosa[8,16,18,24]tetraene]-7′-carbonitrile 13′,13′-dioxide]
IC50 [1, 3]: 644 nM
IC50 [2, 4]: 1.34 nM

CCC[C@]1(OC)/C=C/C[C@H](C)[C@@H](C)S(=O)(=O)NC(=O)c2ccc3c(c2)N(C[C@@H]2CC[C@H]21)C[C@@]1(CCCc2cc(Cl)ccc21)CO3 [Example 100236, (1S,3′R,6′R,7′S,8′E,11′S,12′R)-6-chloro-7′-methoxy-11′,12′-dimethyl-7′-propyl-3,4-dihydro-2H,15′H-spiro[naphthalene-1,22′-[20]oxa[13]thia[1,14]diazatetracyclo [14.7.2.0~3,6~.0~19,24~]pentacosa[8,16,18,24]tetraen]-15′-one 13′,13′-dioxide]
IC50 [1, 3]: 933 nM
IC50 [2, 4]: 1.1 nM

C[C@@H]1[C@@H](C)C/C=C/[C@](O)(C#N)[C@@H]2CC[C@H]2CN2C[C@@]3(CCCc4cc(Cl)ccc43)COc3ccc(cc32)C(=O)NS1(=O)=O [Example 100237, (1S,3′R,6′R,7′R,8′E,11′S,12′R)-6-chloro-7′-hydroxy-11′,12′-dimethyl-15′-oxo-3,4-dihydro-2H-spiro[naphthalene-1,22′-[20]oxa[13]thia[1,14]diazatetracyclo [14.7.2.0~3,6~.0~19,24~]pentacosa[8,16,18,24]tetraene]-7′-carbonitrile 13′,13′-dioxide]
IC50 [1, 3]: 996 nM
IC50 [2, 4]: 1.74 nM

C[C@@H]1[C@@H](C)CCC[C@@](O)(C2SCCCS2)[C@@H]2CC[C@H]2CN2C[C@@]3(CCCc4cc(Cl)ccc43)COc3ccc(cc32)C(=O)NS1(=O)=O [Example 100238, (1S,3′R,6′R,7′S,11′S,12′R)-6-chloro-7′-(1,3-dithian-2-yl)-7′-hydroxy-11′,12′-dimethyl-3,4-dihydro-2H,15′H-spiro[naphthalene-1,22′-[20]oxa[13]thia[1,14]diazatetracyclo [14.7.2.0~3,6~.0~19,24~]pentacosa[16,18,24]trien]-15′-one 13′,13′-dioxide]
IC50 [1, 3]: 747 nM
IC50 [2, 4]: 0.474 nM
